According to patent US20240238379A1, “Compositions and Methods for the Prevention and Treatment of Stress-Induced Fear, Depressive-Like and Anxiety-Like Behavior” (The Trustees of Columbia University in the City of New York, priority 2021, published 2024):

Columns and labels:
[1] = test system: 129S6/SvEv mice; experiment: Forced swim test (FST); format: in vivo; conditions: female mice
Procedure: Female 129S6/SvEv mice were administered an intracerebroventricular infusion of artificial cerebrospinal fluid, PACAP (6-38) (VPAC2 antagonist), or Bay 55-9837. Five minutes after, mice were given an IP injection of saline or (R,S)-ketamine (10 mg/kg). One week later, mice were administered 3-shock CFC training. Five days subsequently, mice were tested in CFC re-exposure and the FST. […] Upon CFC re-exposure, there was a significant group x drug interaction. […] In the PACAP (6-38) group, the prophylactic effect of (R,S)-ketamine was blocked. […]

[2] = test system: 129S6/SvEv mice; experiment: Contextual fear conditioning (CFC) freezing; format: in vivo; conditions: for Freezing upon CFC re-exposure, (R,S)-ketamine versus saline: female mice, IP 10 mg/kg one week before CFC
Procedure: Saline, (R,S)-ketamine (10 mg/kg), or Bay 55-9837 (2.5 or 5 mg/kg) was administered 1 week prior to 3-shock contextual fear conditioning (CFC) stress in female 129S6/SvEv mice. Five days later, mice were assayed for fear, behavioral despair, locomotion, exploratory behavior, and hyponcophagia.
Male 129S6/SvEv mice were administered the same behavioral paradigm as described in Example 1. […] There was no effect of drug on immobility time during FST Day 1.
Female 129S6/SvEv mice were given a single injection of saline, (R,S)-ketamine (10 mg/kg), or Bay 55-9837 (2.5 mg/kg) 5 minutes after 3-shock CFC training.
Male 129S6/SvEv mice were administered the same behavioral paradigm as in Example 3. […] Similarly, in the NSF, Bay 55-9837, but not (R,S)-ketamine suppressed latency to feed in the OF when compared with saline controls.
Female 129S6/SEv mice were administered a single injection of saline of Bay 55-9837 (2.5 mg/kg) and placed in Piezo sleep boxes. One week later, mice were administered 3-shock CFC training or context exposure and again placed back into Piezo sleep boxes. Five days later, mice were re-exposed to the training context. […] During CFC training, there was no effect of drug. […] There was a significant effect of drug and stress as well as a drug x stress interaction.
Female 129S6/SvEv mice were administered an intracerebroventricular infusion of artificial cerebrospinal fluid, PACAP (6-38) (VPAC2 antagonist), or Bay 55-9837. Five minutes after, mice were given an IP injection of saline or (R,S)-ketamine (10 mg/kg). One week later, mice were administered 3-shock CFC training. Five days subsequently, mice were tested in CFC re-exposure and the FST. […] Upon CFC re-exposure, there was a significant group x drug interaction. […] In the PACAP (6-38) group, the prophylactic effect of (R,S)-ketamine was blocked.

Compound	Prophylactic effect of (R,S)-ketamine on FST Day 2 ([1]; ICV PACAP (6-38) then IP (R,S)-ketamine 10 mg/kg)	Freezing upon CFC re-exposure, (R,S)-ketamine versus saline ([2]; PACAP(6-38) ICV group)	Freezing upon CFC re-exposure, (R,S)-ketamine versus saline ([2]; Vehicle ICV group)	Freezing during CFC re-exposure ([2]; male mice, same paradigm as Example 3)	Freezing during CFC training ([2]; male mice, same paradigm as Example 3 (single injection 5 minutes after 3-shock CFC training))	Behavioral despair on FST Day 2 ([1]; 1 week prior to 3-shock CFC stress, 10 mg/kg)	Immobility time on Day 2 of the FST ([1]; 5 minutes after 3-shock CFC training, 10 mg/kg)	Immobility on FST Day 2 compared with Vehicle/saline ([1]; ICV Vehicle then IP (R,S)-ketamine 10 mg/kg)
PACAP (6-38)	blocked							
CNC1(c2ccccc2Cl)CCCCC1=O (racemic) [(R,S)-ketamine]		not significantly different	not significantly different	did not significantly alter	did not significantly alter	reduced	significantly reduced	significantly lower
